One assay has as its system all stages of S. mansoni. To be noted: ref [14],[20]; cited from earlier work.
For assay [1], the system named is cultured adult S. japonicum worms. To be noted: ref [14],[20]; cited from earlier work.
Assay [2] concerns cultured adult S. haematobium worms. The settings on record: ref [14],[20]; cited from earlier work.
Assay [3] relates to adult Schistosoma mansoni worms. The assay can be described thus: Worm contraction of cultured adult worms. In kind it is cell-based. The settings on record: after overnight culture with compound, 10 and 50 µM.
Assay [4] has the same test system. The experiment in a line: Worm killing of cultured adult worms, monitored over 144 hrs. Type of assay: cell-based. To be noted: at the concentrations tested (10 and 50 µM).

Consider `N#Cc1c(-c2ccccc2)no[n+]1[O-]` [Compound 2, 4-phenylfuroxan-3-carbonitrile], for which the “Activity against all stages of S. mansoni” value with all stages of S. mansoni is given as “active”. The “Activity against cultured adult S. japonicum worms” value in assay [1] is “active”. In addition, the “Activity against cultured adult S. haematobium worms” value in assay [2] was “active”.
Turning to `O=C(C1CCCCC1)N1CC(=O)N2CCc3ccccc3C2C1` (centres unmarked) [PZQ, 2-(cyclohexylcarbonyl)-1,2,3,6,7,11b-hexahydro-4H-pyrazino[2,1-a]isoquinolin-4-one], the “Time for worms to return to normal length” value in assay [3] is > 2 days. In assay [4], the “Time at which worms begin to die after compound is removed from culture media” value lay in the range of 4 to 5 days.

Source of the values: paper PMC4160910 (European journal of medicinal chemistry, 2014).
